Test results from US10584134B2, “Use of physiological cooling active ingredients, and agents containing such active ingredients” (SYMRISE AG, priority 2009, dated 2020).
Counter-ions that a name gives are not always drawn.

Target: human TRPM8 receptor (Homo sapiens (Human), UniProt Q7Z2W7)
Assay: Assay on TRPM8 modulators (Ca2+-sensitive dye, HEK293-TRPM8 test cells, EC50 determination)
Type: cell-based
Conditions: assay according to reference example 3
Text: As a test cell system the human TRPM8 DNA (see plasmid pInd-M8 above) was used to prepare a stable transfixed HEK293 cell line. Here preference is for HEK293 which via the plasmid introduced offers the possibility of induction of the TRPM8 expression by means of tetracycline.
The agonisation or antagonisation of the receptor can be quantified by means of a Ca^2+-sensitive dye (e.g. FURA, Fluo-4, etc.).
To begin with, in a manner known per se, in cell culture flasks a fresh culture of transformed HEK cells is prepared. The HEK293-TRPM8 test cells are removed using trypsin from the cell culture flasks and 40 000 cells/well are sown with 100 μl medium in 96-well plates (Greiner #655948 Poly-D-lysine coated). In order to induce the TRPM8 receptor the growth medium tetracycline is mixed in (DMEM/HG, 10% FCS tetracycline-free, 4 mM L-glutamine, 15 μg/ml blasticidin, 100 μg/ml hygromycin B, 1 μg/ml tetracycline). The next day the cells are charged with Fluo-4Am dye and the test is performed.
The test substances are used in triplicate in concentrations of between 0.1 and 200 μm in the assay. Normally the compounds are kept ready in DMSO solutions and diluted for the assay to a maximum DMSO concentration of 2%.

Chain of human TRPM8 receptor (Q7Z2W7 whole entry): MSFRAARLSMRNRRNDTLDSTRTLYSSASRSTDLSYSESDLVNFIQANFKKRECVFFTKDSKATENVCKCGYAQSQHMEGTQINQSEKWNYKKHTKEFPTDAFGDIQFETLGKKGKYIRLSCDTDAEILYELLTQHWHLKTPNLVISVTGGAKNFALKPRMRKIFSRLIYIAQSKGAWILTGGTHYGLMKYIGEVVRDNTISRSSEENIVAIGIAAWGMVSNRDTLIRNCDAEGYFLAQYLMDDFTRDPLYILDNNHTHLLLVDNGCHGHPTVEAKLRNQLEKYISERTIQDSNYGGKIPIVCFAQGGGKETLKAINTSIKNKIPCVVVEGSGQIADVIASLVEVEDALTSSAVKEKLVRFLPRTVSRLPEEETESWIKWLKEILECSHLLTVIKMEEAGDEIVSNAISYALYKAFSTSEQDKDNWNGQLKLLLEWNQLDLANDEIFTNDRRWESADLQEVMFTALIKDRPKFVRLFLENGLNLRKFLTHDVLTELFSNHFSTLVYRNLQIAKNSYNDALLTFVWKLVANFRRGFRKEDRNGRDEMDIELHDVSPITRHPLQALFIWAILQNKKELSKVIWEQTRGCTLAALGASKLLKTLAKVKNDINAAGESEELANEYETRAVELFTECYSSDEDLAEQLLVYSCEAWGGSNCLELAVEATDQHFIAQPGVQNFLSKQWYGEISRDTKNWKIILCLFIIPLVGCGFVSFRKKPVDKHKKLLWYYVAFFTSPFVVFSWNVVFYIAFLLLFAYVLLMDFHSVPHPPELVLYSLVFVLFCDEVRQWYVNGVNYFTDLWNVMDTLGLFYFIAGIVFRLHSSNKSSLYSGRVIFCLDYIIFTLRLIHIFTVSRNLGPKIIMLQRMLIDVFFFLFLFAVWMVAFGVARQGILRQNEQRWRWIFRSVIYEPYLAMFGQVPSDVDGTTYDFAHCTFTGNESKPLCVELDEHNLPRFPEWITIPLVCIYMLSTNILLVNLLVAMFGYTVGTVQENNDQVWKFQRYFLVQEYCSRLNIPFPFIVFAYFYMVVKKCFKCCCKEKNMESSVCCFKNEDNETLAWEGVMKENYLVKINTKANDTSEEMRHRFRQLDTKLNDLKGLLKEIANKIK

EC50 (Table C, structure type 3) [nM]	Compound	further results
1100	CCCN(C(=O)/C=C/c1ccc2c(c1)OCO2)c1ccccc1 [Compound 3-7]	–
–	COc1cnc(-c2ccccn2)nc1N1CCOCC1 [Compound 2-4]	EC50 (Table B, structure type 2): 1000 nM
1700	CCCN(C(=O)/C=C/c1ccc(OC)cc1)c1ccccc1 [Compound 3-21]	–
–	CCc1cnc(-c2ccccn2)nc1NC(C)C [Compound 2-14, (5-ethyl-2-pyridin-2-yl-pyrimidin-4-yl)-isopropyl-amine]	EC50 (Table B, structure type 2): 400 nM
2100	Cc1ccc(/C=C/C(=O)N(C2CCCCC2)C2CCCCC2)cc1 [Compound 3-33]	–
800	CCN(C(=O)/C=C/c1ccc2c(c1)OCO2)C1CCCCC1 [Compound 3-4]	–
–	COc1cnc(-c2ccccn2)nc1NC(C)C [Compound 2-15, Isopropyl-(5-methoxy-2-pyridin-2-yl-pyrimidin-4-yl)-ammonium citrate]	EC50 (Table B, structure type 2): 800 nM
1800	Cc1ccc(/C=C/C(=O)N(c2ccccc2)C(C)C)cc1 [Compound 3-36]	–
–	O=C1CCCC2=C1C1(CC3c4ccccc4CCN23)SCCS1 (stereo not shown) [Compound 1-1, 2,3,4,5,6,10b,11,12-octahydro-spiro[4b-azachrysene-12,2′-[1,3]dithioland-]-1-one]	EC50 (Table A, structure type 1): 100 nM
–	COc1cnc(-c2ccccn2)nc1NC(C)C [Compound 2-20]	EC50 (Table B, structure type 2): 900 nM
1700	Cc1ccccc1N(Cc1ccccc1)C(=O)Cc1ccccc1 [Compound 3-47]	–
300	Cc1cccc(/C=C/C(=O)N(c2ccccn2)C2CCCCC2)c1 [Compound 3-31, (E)-N-cyclohexyl-N-pyridin-2-yl-3-m-tolyl-acrylamide]	–
6200	CCN(C(=O)/C=C/c1ccc2c(c1)OCO2)c1ccccn1 [Compound 3-11]	–
200	CC(C)N(C(=O)/C=C/c1ccc2c(c1)OCO2)C1CCCCC1 [Compound 3-5, (E)-3-benzo[1,3]dioxol-5-yl-N-cyclohexyl-N-isopropyl-acrylamide]	–
–	COc1cnc(-c2ccccc2)nc1N1CCOCC1 [Compound 2-13]	EC50 (Table B, structure type 2): 11700 nM
5500	O=C(c1c(Cl)cccc1Cl)N(Cc1ccccc1)c1ccccn1 [Compound 3-49]	–
3000	COc1cccc(/C=C/C(=O)N(c2ccccn2)C2CCCCC2)c1 [Compound 3-37]	–
400	Cc1ccccc1/C=C/C(=O)N(c1ccccn1)C1CCCCC1 [Compound 3-30]	–
–	CC1OC(=O)C2=C1N1CCc3ccccc3C1CC21SCCS1 (stereo not shown) [Compound 1-3, 5,6,10b,11-tetrahydro-3-methyl-spiro[12H-benzo[a]furo[3,4-f]quinolizin-12,2′-[1,3]dithiolan]-1(3H)one]	EC50 (Table A, structure type 1): 700 nM
3300	COc1ccc(CCC(=O)N(c2ccccn2)C2CCCCC2)cc1 [Compound 3-42]	–
–	C[C@H]1OC(=O)C2=C1N1CCc3ccccc3C1CC21[S+]([O-])CCS1(=O)=O (stereo partly shown) [Compound 1-7]	EC50 (Table A, structure type 1): 700 nM
100	COc1ccc(/C=C/C(=O)N(C2CCCCC2)C2CCCCC2)cc1 [Compound 3-18, (E)-N,N-dicyclohexyl-3-(4-methoxy-phenyl)-acrylamide]	–
100	O=C(/C=C/c1ccc2c(c1)OCO2)N(c1ccccn1)C1CCCCC1 [Compound 3-1, (E)-3-benzo[1,3]dioxol-5-yl-N-cyclohexyl-N-pyridin-2-yl-acrylamide]	–
–	COc1cnc(-c2ccccn2)nc1NC1CCC1 [Compound 2-3, Cyclobutyl-(5-methoxy-2-pyridin-2-yl-pyrimidin-4-yl)-amine]	EC50 (Table B, structure type 2): 800 nM
3000	O=C(COc1ccccc1)N(c1nccs1)C1CCCCC1 [Compound 3-46]	–
3900	CC(C)N(Cc1ccccc1)C(=O)/C=C/c1ccc2c(c1)OCO2 [Compound 3-13]	–

EC50 (Table C, structure type 3) [nM]	Compound	further results
400	COc1ccc(/C=C/C(=O)N(c2ccccn2)C2CCCCC2)cc1 [Compound 3-17, 4-methoxycinammic acid-N-cyclohexyl-N-2-pyridylamide]	–
2900	O=C(/C=C/c1ccccc1)N(c1ccccc1)c1ccccc1 [Compound 3-27, Cinammic acid-N,N-diphenylamide]	–
–	COCC(C)Nc1nc(-c2ccccn2)ncc1OC (stereo not shown) [Compound 2-10]	EC50 (Table B, structure type 2): 2200 nM
900	O=C(/C=C/c1ccc2c(c1)OCO2)N(c1ccccc1)C1CCCCC1 [Compound 3-3]	–
10900	COc1ccc(C(=O)N(c2ccccn2)C2CCCCC2)cc1 [Compound 3-48]	–
–	CC1(C)CC(=O)C2=C(C1)N1CCc3ccccc3C1CC21SCCCS1 (stereo not shown) [Compound 1-5, 2,3,4,5,6,10b,11,12-octahydro-3,3-dimethyl-spiro[4b-azachrysene-12,2′-[1,3]dithian]-1-one]	EC50 (Table A, structure type 1): 1400 nM
3200	COc1ccc(/C=C/C(=O)N(Cc2ccccc2)c2ccccc2)cc1 [Compound 3-23]	–
–	CC1(C)CC(=O)C2=C(C1)N1CCc3ccccc3C1CC21SCCS1 (stereo not shown) [Compound 1-2, 2,3,4,5,6,10b,11,12-octahydro-3,3-dimethyl-spiro[4b-azachrysene-12,2′-[1,3]dithiolan]-1-one]	EC50 (Table A, structure type 1): 600 nM
300	Cc1ccc(/C=C/C(=O)N(c2ccccn2)C2CCCCC2)cc1 [Compound 3-32, (E)-N-cyclohexyl-N-pyridin-2-yl-3-p-tolyl-acrylamide]	–
1200	O=C(/C=C/c1ccc2c(c1)OCO2)N(Cc1ccccc1)c1ccccc1 [Compound 3-10]	–
5900	COc1cccc(/C=C/C(=O)N(c2ccccc2)c2ccccc2)c1OC [Compound 3-40]	–
1300	COc1ccc(/C=C/C(=O)N(c2ccccc2)C(C)C)cc1 [Compound 3-22]	–
600	O=C(/C=C/c1ccccc1)N(c1ccccc1)C1CCCCC1 [Compound 3-26, (E)-N-cyclohexyl-3,N-diphenyl-acrylamide]	–
800	O=C(/C=C/c1ccc2c(c1)OCO2)N(c1ccccc1)c1ccccc1 [Compound 3-6, (E)-3-benzo[1,3]dioxol-5-yl-N,N-diphenyl-acrylamide]	–
2300	O=C(/C=C/c1ccccc1)N(c1ccccn1)C1CCCCC1 [Compound 3-25, Cinammic acid-N-cyclohexyl-N-2-pyridylamide]	–
–	CC1(C)CC(=O)C2=C(C1)N1CCc3ccccc3C1CC21[S+]([O-])CCS1(=O)=O (stereo not shown) [Compound 1-8]	EC50 (Table A, structure type 1): 9800 nM
600	CC(C)N(C(=O)/C=C/c1ccc2c(c1)OCO2)c1ccccc1 [Compound 3-8]	–
–	C[C@H]1OC(=O)C2=C1N1CCc3ccccc3C1CC21SCCCS1 (stereo partly shown) [Compound 1-6]	EC50 (Table A, structure type 1): 200 nM
11800	O=C(/C=C/c1ccc2c(c1)OCO2)N(C1CCCCC1)C1CCCCC1 [Compound 3-2]	–
–	COc1cnc(-c2ccccn2)nc1NC(C)C [Compound 2-17, Isopropyl-(5-methoxy-2-pyridin-2-yl-pyrimidin-4-yl)-ammonium malate]	EC50 (Table B, structure type 2): 400 nM
800	CC(C1CC1)N(C(=O)/C=C/c1ccccc1)c1ccccc1 (stereo not shown) [Compound 3-29]	–
700	CCCCN(C(=O)/C=C/c1ccc2c(c1)OCO2)c1ccccc1 [Compound 3-9]	–
4000	COc1ccc(OCC(=O)N(c2ccccn2)C2CCCCC2)cc1 [Compound 3-45]	–
–	COc1cnc(-c2ccccn2)nc1NC(C)CCO (stereo not shown) [Compound 2-9]	EC50 (Table B, structure type 2): 1000 nM
1500	CCN(Cc1ccccc1)C(=O)/C=C/c1ccc2c(c1)OCO2 [Compound 3-14]	–
4000	Cc1ccc(/C=C/C(=O)N(c2ccccc2)c2ccccc2)cc1 [Compound 3-34, 4-methylcinammic acid-N,N-diphenylamide]	–
